We go through six molecules from patent US20040053355A1, “Modular approach to on-line synthesis, drug discovery and biochemical transformations using immobilized enzyme reactors” (priority 2000, published 2004).

Data set [1] has as its target T1, dopamine beta-hydroxylase immobilized onto Glut-P (DBH-Glut-P) (Bos taurus, UniProt P15101).
T1 construct: purchased
T1 sequence (P15101 1-610): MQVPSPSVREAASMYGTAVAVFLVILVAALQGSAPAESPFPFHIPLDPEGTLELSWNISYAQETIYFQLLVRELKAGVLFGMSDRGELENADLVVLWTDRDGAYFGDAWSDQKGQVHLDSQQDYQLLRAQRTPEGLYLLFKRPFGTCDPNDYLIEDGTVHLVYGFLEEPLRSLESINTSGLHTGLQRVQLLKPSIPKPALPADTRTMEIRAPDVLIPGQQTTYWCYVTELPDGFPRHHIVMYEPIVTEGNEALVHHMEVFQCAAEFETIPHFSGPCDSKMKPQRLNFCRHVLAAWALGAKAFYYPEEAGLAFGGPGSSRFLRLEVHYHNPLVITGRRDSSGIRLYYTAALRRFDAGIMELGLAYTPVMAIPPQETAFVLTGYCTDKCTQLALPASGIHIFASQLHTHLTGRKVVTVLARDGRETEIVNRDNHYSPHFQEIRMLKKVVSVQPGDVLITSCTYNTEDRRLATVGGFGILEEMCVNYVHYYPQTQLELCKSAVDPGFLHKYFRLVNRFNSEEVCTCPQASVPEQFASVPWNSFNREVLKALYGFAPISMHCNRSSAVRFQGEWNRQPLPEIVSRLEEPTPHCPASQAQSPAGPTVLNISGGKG
Nature of the data set: DBH immobilized onto Glut-P stationary phase (DBH-Glut-P, DBH-Glut-P-SP), batch assay. Type of data set: biochemical, bovine. As to conditions: hydrochloride. The method, then:
The enzyme was assayed as follows: four different solutions were prepared A, B, C and D (final concentration). (A) 500 μL of enzyme solution (10 μg/ml); B: 275 μL sodium acetate buffer (10 mM, pH 5.5), 50 μL cupric sulphate (5 μM); C: 25 μL catalase (5 μg/ml), 50 μL ascorbic acid (10 mM), 50 μl sodium fumarate (10 mM); D: 50 μl substrate (5 mM). Solution B was added to solution A, the resulting solution was mixed for 1 min. Solution C was added and the resulting solution was mixed for an additional minute. The reaction was started with the addition of the substrate (D), after which the reaction solution was incubated for 5 min at 37° C. in a shaking bath. […]
The packing material was washed three times with sodium acetate buffer (0.1M, pH 6). […] The enzyme solution (8-10 μg in 1 ml sodium acetate buffer] was added to the packing material, the mixture was vortexed for 2 min and then placed on a shaker/rotator for 6 h at ambient temperature. At the end of 6 h, the suspension was centrifuged, the supernatant decanted and the packing material washed three additional times with the buffer. The amount of residual enzyme was determined utilizing the same procedure as that carried out for the enzyme immobilized onto IAM.

In data set [2] the target is T2, dopamine beta-hydroxylase (Homo sapiens, UniProt P09172).
T2 sequence (P09172 1-617): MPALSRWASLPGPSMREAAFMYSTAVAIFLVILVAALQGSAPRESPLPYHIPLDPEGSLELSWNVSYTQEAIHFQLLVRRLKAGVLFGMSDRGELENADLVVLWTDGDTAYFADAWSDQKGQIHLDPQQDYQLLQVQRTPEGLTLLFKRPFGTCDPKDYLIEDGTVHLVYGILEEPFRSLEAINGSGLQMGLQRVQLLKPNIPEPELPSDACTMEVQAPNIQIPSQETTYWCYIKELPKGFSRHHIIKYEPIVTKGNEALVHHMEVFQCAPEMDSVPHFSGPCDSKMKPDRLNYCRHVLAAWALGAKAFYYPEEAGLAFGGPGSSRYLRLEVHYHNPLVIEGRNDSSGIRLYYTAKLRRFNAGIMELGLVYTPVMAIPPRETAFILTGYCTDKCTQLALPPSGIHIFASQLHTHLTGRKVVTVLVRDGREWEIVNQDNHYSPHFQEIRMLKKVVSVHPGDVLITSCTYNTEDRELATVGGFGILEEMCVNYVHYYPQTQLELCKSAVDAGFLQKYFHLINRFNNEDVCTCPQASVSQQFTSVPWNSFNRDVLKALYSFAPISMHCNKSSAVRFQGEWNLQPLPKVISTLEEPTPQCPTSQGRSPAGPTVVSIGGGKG
To be noted: 140 μM captopril; Cu2+ as CuSO4; Palatini et al., 1989; cited from earlier work.

The target in data set [3] is T3, DBH-Glut-P IMER (immobilized dopamine beta-hydroxylase) (Bos taurus, UniProt P15101).
T3 construct: purchased
T3 sequence (P15101 1-610): T1 sequence (P15101 1-610)
Briefly: On-line DBH-Glut-P immobilized enzyme reactor (DBH-Glut-P IMER) HPLC system. Type of data set: biochemical, bovine. An excerpt: DBH immobilized on the IAM or Glut-P stationary phase was packed into a 1 cm×10 mm guard (Regis Technologies). The guard was placed in a holder and the resulting column connected to a chromatographic system. THE DBH-IAM-IMER and the DBH-Glut-P-IMER was washed with sodium acetate buffer [0.1M, pH 5.5] and sodium acetate buffer [0.1M, pH 6.0], respectively. The eluent from both IMERs was collected in order to determine if any of the DBH was being washed off the columns. The Biorad assay was utilized to measure the amount of non-immobilized enzyme. When the columns were not in use they were washed with sodium acetate buffer at the respective pHs and stored at 4° C.
Pumps 2 and 3 on system 2 and 3 were stopped. 100 μl of a substrate/cofactor mixture is loaded into the injector (i) and the valve is switched to the inject position at the same time the witching valve (SV) is switched such that substrate/product are eluted from the DBH-IMERs and concentrated onto the PBA column of system 2.The second pump was started and mobile phase A was pumped through the PBA column at a flow rate of 0.1 ml/min for 30 sec in order to elute, ascorbic acid and any other by-products produced from the reaction. The pump was then switched to mobile phase B with a flow rate of 0.1 ml/min for 2 min and simultaneously SV1 was switched such that unreacted substrate and product formed were concentrated on the analytical columns of System 3. When the specific contact time elapses the SV2 is switched back to the original position and the pump 3 is started.
The enzymatic activity on the DBH-Glut-P was determined by quantification of the amount of product formed with a given substrate. The temperature of the IMER unless otherwise stated was kept at 37° C. with a column heater. Stock solutions of tyramine were prepared in water. […] The kinetic parameters were determined using standard Michaelis-Menten approach. […] The rates of reaction (Vmax) were calculated using […]mol/mg/min. Results are expressed as mean±standard error of the mean (SEM). […]

Data set [4] addresses T4, immobilized DBH (dopamine β-hydroxylase) (Bos taurus, UniProt P15101).
T4 construct: purchased
T4 sequence (P15101 1-610): T1 sequence (P15101 1-610)
Nature of the data set: Captopril inhibition of immobilized DBH, batch assay (support not specified). Type of data set: biochemical, bovine. The method, then: (§1) The enzyme was assayed as follows: four different solutions were prepared A, B, C and D (final concentration). (A) 500 μL of enzyme solution (10 μg/ml); B: 275 μL sodium acetate buffer (10 mM, pH 5.5), 50 μL cupric sulphate (5 μM); C: 25 μL catalase (5 μg/ml), 50 μL ascorbic acid (10 mM), 50 μl sodium fumarate (10 mM); D: 50 μl substrate (5 mM). Solution B was added to solution A, the resulting solution was mixed for 1 min. Solution C was added and the resulting solution was mixed for an additional minute. The reaction was started with the addition of the substrate (D), after which the reaction solution was incubated for 5 min at 37° C. in a shaking bath. The reaction was stopped by the addition of 100 μl of cold hexane, the resulting mixture was centrifuged at 3000×g for 10 min and the supernatant transferred to the pre-conditioned phenylboronic acid cartridges in order to extract the product formed and the remaining substrate. Extracted samples were directly injected onto the HPLC under either chiral or achiral conditions.
The effect of captopril on immobilized DBH kinetics is represented in the form of a reciprocal velocity plot versus the reciprocal of the concentration of tyramine. […] The slope and intercept replots were linear (r>0.995).

Data set [5] has as its target T5, dopamine beta-hydroxylase (DBH), non-immobilized (Bos taurus, UniProt P15101).
T5 construct: purchased
T5 sequence (P15101 1-610): T1 sequence (P15101 1-610)
Briefly: Non-immobilized DBH activity assay, batch incubation with HPLC-fluorescence analysis. Type of data set: biochemical, bovine. The method, then: The solutes were quantitated using fluorescence detection with excitation at λ=265 nm and no cut-off filter for emission. A flow rate of 1 ml/min and ambient temperature were used throughout the study.
Enzymatic conversions utilizing DBH require cupric sulphate, catalase, ascorbic acid and sodium fumarate. An off-line extraction method utilizing solid phase extraction cartridges containing a phenylboronic acid stationary phase was developed. The procedure consisted of the following: 1-ml cartridges were conditioned with 2 ml of methanol followed by 2 ml of sodium phosphate buffer (0.1M, pH 8.4). One ml of reaction mixture was added, the cartridge was then washed with 1 ml sodium phosphate buffer (0.1M, pH 8.4) and the substrate and product were eluted using 1 ml of 0.1N HCl. The eluate was directly injected onto the HPLC system.
as §1

Substrate in data set [6]: O=C1O[C@H]([C@@H](O)CO)C(O)=C1O
Described as above. As to conditions: other: non-immobilized DBH; Lineweaver-Burke; 37.0 °C. In kind it is biochemical, bovine.

Substrate in data set [7]: NCCc1ccc(O)cc1
Described as above. Type of data set: biochemical, bovine. As to conditions: other: non-immobilized DBH; Lineweaver-Burke; 37.0 °C.

Substrate in data set [8]: NCCc1ccc(O)c(O)c1
Nature of the data set: purified protein, by the assay type. To be noted: other: non-immobilized DBH; Lineweaver-Burke; 37.0 °C.

Substrate in data set [9]: COc1cc(C(O)CN)ccc1O
Nature of the data set: Non-immobilized PNMT activity assay, batch incubation with HPLC-fluorescence analysis. Type of data set: biochemical, bovine. As to conditions: other: non-immobilized PNMT; 37.0 °C.

Substrate in data set [10]: COc1cc(C(O)CN)ccc1O
Nature of the data set: PNMT immobilized on Glut-P stationary phase (PNMT-SP), batch assay. Type of data set: biochemical, bovine. As to conditions: other: PNMT-SP, Table 5; pH 8.3; 37.0 °C.

Substrate in data set [11]: COc1cc(C(O)CN)ccc1O
Briefly: On-line PNMT immobilized enzyme reactor (PNMT-IMER) HPLC system. Type of data set: biochemical, bovine. To be noted: other: PNMT-IMER, 0.2 ml/min, contact time 20 min, 37° C., n = 2, pH 8.3.

The term Vmax denotes the top rate of the reaction or transport when substrate is in excess. As to `Cl.NCCc1ccc(O)cc1` [Tyramine, tyramine hydrochloride], the Vmax in [1] is on record as 0.112^− μmol/mg/min.

Broadly, the IC50 is the midpoint of a concentration-inhibition curve. With `C[C@H](CS)C(=O)N1CCC[C@H]1C(=O)O` [Captopril, captopril], in [2], the “Cu^2+ concentration giving reversal of the inhibition” value was 1.5 µM. Besides, the “concentration as low as which the IMER is inhibited” value in data set [3] (DBH-Glut-P IMER) came out at 50 µM. In addition, the IC50 was 120 µM in data set [3] (on-line injection of substrate/cofactor/inhibitor mixtures, read-out: IC50 DBH-Glut-P IMER) and 150 µM in data set [5] (read-out: IC50 DBH (Non-immobilized)). For the same molecule, the “cupric sulphate concentration achieving reversal of the inhibition” value in data set [4] (enzyme form not stated) stood at 2.5 µM. In [4] (immobilized DBH, tyramine as varied substrate), the “type of inhibition with respect to tyramine (reciprocal velocity plot)” value was “noncompetitive inhibition”. The “inhibition of DBH mediated formation of octopamine from tyramine” value in data set [4] (immobilized enzyme, concentrations as low as 150 μM) was “approximately 50%”; in data set [5] (non-immobilized enzyme, concentrations as low as 150 μM), “approximately 50%”.

B1: dopamine beta-hydroxylase (DBH), non-immobilized (Bos taurus) (protein)
chain: T1 sequence (P15101 1-610)
notes: purchased
As a reminder, the Km is the substrate concentration at which the rate is half of its maximum. Turning to B1, the Michaelis constant (Km) in [6] was 0.62 mM; in data set [7], 2.85 mM; in data set [8], 5.03 mM. In [6], the Vmax was determined as 0.185 µmol/mg/min.

B2: phenylethanolamine N-methyltransferase (PNMT), non-immobilized (Bos taurus) (protein)
chain: MSGTDRSQAAGAVPDSDPGLAAVSSAYQRFEPRAYLRNNYAPPRGDLSCPDGVGPWKLRCLAQTFATGEVSGRTLIDIGSGPTIYQLLSACAHFEDITMTDFLEVNRQELRLWLREEPGAFDWSVYSQHVCLIEGKGESWQEKECQLRARVKRILPIDVHRPQPLGAGGLAPLPADALVSAFCLEAVSPDLASFQRALDHITTLLRPGGHLLLIGALEESWYLAGEARLAVVPVREEEVREALVRTATRCGICARTPMPAHLQTGVDDVKGIFFTRAQKKVGV
Consider B2, for which the Km in data set [9] is listed as 0.109 mM.

B3: PNMT-Glut-P stationary phase (PNMT-SP) (Bos taurus) (protein)
chain: B2 chain
With B3, the Km in data set [10] is 0.152 mM.

B4: PNMT-IMER (immobilized phenylethanolamine N-methyltransferase) (Bos taurus) (protein)
chain: B2 chain
Consider B4, for which the Km in data set [11] worked out at 0.384 mM.
